Test results reported in publication PMC8979514 (Journal of Enzyme Inhibition and Medicinal Chemistry, 2022).
Read-outs that look alike come from different tables or passages of the source.

What was measured:
[1] = target: T1, Acetylcholinesterase (eeAChE, E.C. 3.1.1.7) (Electrophorus electricus, UniProt O42275); assay: biochemical; type: biochemical, electric eel; settings: for IC50: eeAChE; for Selectivity IC50(eeAChE)/ IC50(BChE): ratio of IC50 values
T1 construct: purchased Sigma Aldrich
Procedure: (§1) [33] Inhibitory activity was tested at room temperature on 96-well plate using Ellman’s method. Lyophilised powders of AChE and BChE were dissolved in phosphate buffer (pH 7.5, 0.1 M) with 1% BSA.
(§2) Each well was filled to a total volume of 330 µL. The content inculded 285 µL of phosphate buffer, 5 µL 2 units/mL of eeAChE/BChE, 10 µL 0.01 M of DTNB, 10 µl of tested compound (for the control wells 10 µL of the phosphate buffer instead of tested compound) and 20 µL (7.5 mM) ATCh/BTCh. The hydrolysis of ATCh/BTCh was initiated by adding it to the well directly before the measurement. The absorbance was recorded at 1 min intervals for 8 min in total. The percent of inhibition was calculated by nonlinear regression analysis of the response–concentration (log) curve as a percentage of the reaction rate of the tested compounds over the control. Data analysis was performed by using GraphPad Prism 5.0 Software to give the IC50 values. The experiment was carried out in triplicate.

[2] = target: T2, butyrylcholinesterase (BChE, E.C. 3.1.1.8) (Equus caballus, UniProt P81908); assay: biochemical; design: species or system equine serum; settings: for IC50: BChE from equine serum
T2 construct: purchased Sigma Aldrich
T2 sequence (P81908 whole entry): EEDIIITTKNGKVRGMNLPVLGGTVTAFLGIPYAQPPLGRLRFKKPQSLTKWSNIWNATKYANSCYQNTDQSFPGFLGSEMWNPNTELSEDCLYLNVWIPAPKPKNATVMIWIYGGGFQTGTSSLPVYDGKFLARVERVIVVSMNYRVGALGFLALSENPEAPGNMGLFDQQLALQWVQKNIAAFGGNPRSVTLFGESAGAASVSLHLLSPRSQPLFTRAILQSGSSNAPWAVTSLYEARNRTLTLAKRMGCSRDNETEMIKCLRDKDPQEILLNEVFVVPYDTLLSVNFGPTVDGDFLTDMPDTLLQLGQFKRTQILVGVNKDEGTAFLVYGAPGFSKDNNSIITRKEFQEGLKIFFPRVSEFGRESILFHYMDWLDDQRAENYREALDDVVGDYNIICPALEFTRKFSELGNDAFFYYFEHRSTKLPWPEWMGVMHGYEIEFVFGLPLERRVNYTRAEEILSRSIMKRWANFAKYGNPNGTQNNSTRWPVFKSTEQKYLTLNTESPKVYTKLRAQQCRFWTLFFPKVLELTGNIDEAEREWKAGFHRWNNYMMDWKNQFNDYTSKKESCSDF
Procedure: as §1, §2

in vitro [3] = type: cell-based, human; settings: human, 24 h incubation, MTT, mean ± SD, read-out: Cells viability of SH-SY5Y cell line (% of control)
Procedure: (§3) Human neuroblastoma SH-SY5Y and human liver hepatocellular HepG2 cell lines were purchased from the American Type Culture Collections (ATCC). SH-SY5Y cells were cultured in a Dulbecco’s Modified Eagle Medium (DMEM) supplemented with Ham F12 medium (ratio 1:1), whereas HepG2 cells in Eagle’s Minimum Essential Medium (EMEM). Additionally, all culture medium was supplemented with 10% foetal bovine serum (FBS), streptomycin (100 µg/mL) and penicillin (100 U/mL). The cells were seeded into flasks containing supplemented medium and maintained in a humidified atmosphere of 5% CO2 and 95% air at 37 °C. The cell viability assay was performed in confluence of the cells in serum free medium (without FBS) was 80–90%.
(§4) […]. SH-SY5Y cells and HepG2 cells were seeded on 96-well plate with a density of 27–29 × 10^3 cells/well and 12–14 × 10^3/well respectively. […]. The DMSO concentration of every well in final dilutions was equal to or less than 0.1%. After incubation with compounds, MTT was added and 2 h later, the absorbance was measured at 492 nm. The result was expressed as the percentage of control cells (cultured in serum-free medium containing 0.1% of DMSO) which was set to 100%. The MTT test was performed in three independent replications. Data analysis was performed by using GraphPad Prism 5.0 Software.
SH-SY5Y a standard cell line used for determining neurocytotoxic effect of potential drug. Moreover it is well-established in vitro model of neurodegenerative disorders. […].

in vitro [4] = type: cell-based, human; settings: human; MTT, 24 h incubation; read-out: Cytotoxicity on HepG2 cells IC50
Procedure: as §3, §4
. HepG2 is a commonly used in vitro model for the investigation of hepatocytotoxic effect of xenobiotics [40]^,[41]. In our study, we evaluated the toxicity of our new analogs against […]. […]

[5] = IC50 AChE, Ellman's method, phosphate buffer pH 7.5, room temperature
[6] = pIC50 ± S.E.M. AChE, value in brackets under the IC50
[7] = IC50 BChE, Ellman's method, phosphate buffer pH 7.5, room temperature
[8] = pIC50 ± S.E.M. BChE, value in brackets under the IC50
[9] = Ellman's method, phosphate buffer pH 7.5, room temperature, read-out: IC50 AChE
[10] = value in brackets under the IC50, read-out: pIC50 ± S.E.M. AChE (converted)
[11] = Ellman's method, phosphate buffer pH 7.5, room temperature, read-out: IC50 BChE
[12] = value in brackets under the IC50, read-out: pIC50 ± S.E.M. BChE (converted)
[13] = from IC50 values, versus tacrine

T1 sequence (O42275 24-633): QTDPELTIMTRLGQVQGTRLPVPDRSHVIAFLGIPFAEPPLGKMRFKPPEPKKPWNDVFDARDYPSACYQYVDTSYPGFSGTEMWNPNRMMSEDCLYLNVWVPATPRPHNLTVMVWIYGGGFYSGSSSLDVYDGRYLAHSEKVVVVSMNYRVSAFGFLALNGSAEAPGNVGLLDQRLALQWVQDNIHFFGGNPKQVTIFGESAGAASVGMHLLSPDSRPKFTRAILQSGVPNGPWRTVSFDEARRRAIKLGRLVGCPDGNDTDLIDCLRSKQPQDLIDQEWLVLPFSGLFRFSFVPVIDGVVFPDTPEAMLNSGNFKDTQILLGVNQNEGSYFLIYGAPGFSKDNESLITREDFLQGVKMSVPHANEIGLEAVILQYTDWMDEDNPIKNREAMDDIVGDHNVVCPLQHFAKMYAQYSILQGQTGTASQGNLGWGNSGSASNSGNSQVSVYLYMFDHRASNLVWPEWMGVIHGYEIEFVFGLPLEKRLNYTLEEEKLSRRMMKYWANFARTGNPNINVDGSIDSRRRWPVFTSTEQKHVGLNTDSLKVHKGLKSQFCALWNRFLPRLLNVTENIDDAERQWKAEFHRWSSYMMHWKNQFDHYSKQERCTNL

| SMILES | IC50 [1, 5] | IC50 [1, 6] | Selectivity IC50(eeAChE)/ IC50(BChE) [1] | IC50 [2, 7] | IC50 [2, 8] | viability at 24 h, 12.5 µM (in vitro [3]) | viability at 24 h, 50 µM (in vitro [3]) | viability at 24 h, 100 µM (in vitro [3]) | IC50 at 24 h (in vitro [4]) | IC50 [1, 9] | IC50 [1, 10] | IC50 [2, 11] | IC50 [2, 12] | viability at 12.5 µM (in vitro [3]) | viability at 50 µM (in vitro [3]) | viability at 100 µM (in vitro [3]) | IC50 (in vitro [4]) | fold more potent than tacrine against AChE [1, 13] | fold more potent than tacrine against BChE [2, 13] |
| --- | --- | --- | --- | --- | --- | --- | --- | --- | --- | --- | --- | --- | --- | --- | --- | --- | --- | --- | --- |
| CCOP(=O)(NCCCCCCNc1c2c(nc3ccccc13)CCCC2)OCC [Compound 6, Diethyl(6-((1,2,3,4-tetrahydroacridin-9-yl)amino)hexyl)phosphoramidate] | 32.6 nM | 32.6 nM | 4.82 | 6.75 nM | 6.76 nM | 74.3 ± 4.9% | 71.7 ± 7.2% | 67.5 ± 9% | 140000 nM |  |  |  |  |  |  |  |  |  |  |
| O=P(NCCCCCCNc1c2c(nc3ccccc13)CCCC2)(Oc1ccccc1)Oc1ccccc1 [Compound 7, Diphenyl(6-((1,2,3,4-tetrahydroacridin-9-yl)amino)hexyl)phosphoramidate] |  |  | 3.04 |  |  |  |  |  |  | 125 nM | 125 nM | 41.1 nM | 41.1 nM | 47.4 ± 1.2% | 41.3 ± 1.5% | 30.1 ± 5% | 14600 nM |  |  |
| CCOP(=O)(NCCCCCCCCNc1c2c(nc3ccccc13)CCCC2)OCC [Compound 8, Diethyl(8-((1,2,3,4-tetrahydroacridin-9-yl)amino)octyl)phosphoramidate] | 6.11 nM | 6.11 nM | 0.48 | 12.9 nM | 12.9 nM | 76.7 ± 5.8% | 51.6 ± 5.4% | 52.2 ± 1% | 23700 nM |  |  |  |  |  |  |  |  | 6 fold |  |
| CCCCOP(=O)(NCCCCCCCCNc1c2c(nc3ccccc13)CCCC2)OCCCC [Compound 9, Dibutyl(8-((1,2,3,4-tetrahydroacridin-9-yl)amino)octyl)phosphoramidate] | 8.18 nM | 8.18 nM | 0.2 | 41.5 nM | 41.5 nM | 77.5 ± 13.5% | 55.7 ± 11.5% | 54.6 ± 8.4% | 43300 nM |  |  |  |  |  |  |  |  |  |  |
| O=P(NCCCCCCCCNc1c2c(nc3ccccc13)CCCC2)(Oc1ccccc1)Oc1ccccc1 [Compound 10, Diphenyl(8-((1,2,3,4-tetrahydroacridin-9-yl)amino)octyl)phosphoramidate] |  |  | 0.24 |  |  |  |  |  |  | 44.2 nM | 44.3 nM | 188 nM | 188 nM | 80.1 ± 16.8% | 63.7 ± 5.7% | 48.1 ± 8.1% | 7150 nM |  |  |
| CCOP(=O)(NCCCCCCCCCCCCNc1c2c(nc3ccccc13)CCCC2)OCC [Compound 11, Diethyl(12-((1,2,3,4-tetrahydroacridin-9-yl)amino)dodecyl)phosphoramidate] |  |  | 0.51 |  |  |  |  |  |  | 33.3 nM | 33.3 nM | 65.5 nM | 65.5 nM | 35.4 ± 4.6% | 35.5 ± 4.1% | 31.1 ± 6.4% | 50 nM |  |  |
| CCCCOP(=O)(NCCCCCCCCCCCCNc1c2c(nc3ccccc13)CCCC2)OCCCC [Compound 12, Dibutyl(12-((1,2,3,4-tetrahydroacridin-9-yl)amino)dodecyl)phosphoramidate] | 16.3 nM | 16.3 nM | 0.27 | 61.2 nM | 61.2 nM | 69.3 ± 3.7% | 52.1 ± 3.1% | 53.5 ± 5.8% | 20800 nM |  |  |  |  |  |  |  |  |  |  |
| O=P(NCCCCCCCCCCCCNc1c2c(nc3ccccc13)CCCC2)(Oc1ccccc1)Oc1ccccc1 [Compound 13, Diphenyl(12-((1,2,3,4-tetrahydroacridin-9-yl)amino)dodecyl)phosphoramidate] | 9.96 nM | 9.95 nM | 5.06 | 1.97 nM | 1.97 nM | 40.4 ± 7.6% | 38.4 ± 7.6% | 38 ± 3.8% |  |  |  |  |  |  |  |  |  |  | 12 fold |
| CCCCOP(=O)(OCCCC)OCCCNc1c2c(nc3ccccc13)CCCC2 [Compound 17, Dibutyl(3-((1,2,3,4-tetrahydroacridin-9-yl)amino)propyl)phosphate] | 110 nM | 110 nM | 3.78 | 29.1 nM | 29.1 nM | 94.4 ± 5.1% | 67.7 ± 14.7% | 63.2 ± 12.2% | 72300 nM |  |  |  |  |  |  |  |  |  |  |
| O=P(OCCCNc1c2c(nc3ccccc13)CCCC2)(Oc1ccccc1)Oc1ccccc1 [Compound 18, Diphenyl(3-((1,2,3,4-tetrahydroacridin-9-yl)amino)propyl)phosphate] | 58.6 nM | 58.6 nM | 1.55 | 37.7 nM |  | 79.5 ± 7.4% | 71.2 ± 20.5% | 59 ± 20.3% | 53800 nM |  |  |  |  |  |  |  |  |  |  |
| CCCCOP(=O)(OCCCC)OCCNCCNc1c2c(nc3ccccc13)CCCC2 [Compound 20, Dibutyl(2-((2-((1,2,3,4-tetrahydroacridin-9-yl)amino)ethyl)amino)ethyl)phosphate] | 81.6 nM | 81.5 nM | 0.44 | 186 nM |  | 78.9 ± 8.6% | 79.7 ± 1.1% | 68.6 ± 14.5% | 134000 nM |  |  |  |  |  |  |  |  |  |  |
| O=P(OCCNCCNc1c2c(nc3ccccc13)CCCC2)(Oc1ccccc1)Oc1ccccc1 [Compound 21, Diphenyl(2-((2-((1,2,3,4-tetrahydroacridin-9-yl)amino)ethyl)amino)ethyl)phosphate] | 501 nM | 501 nM | 12.22 | 41 nM | 41 nM | 52.3 ± 5% | 42.7 ± 6.4% | 30.7 ± 1.5% |  |  |  |  |  |  |  |  |  |  |  |
